From article PMC6911266 (Nature, 2019)

Experiments:
[1] = test system: P. falciparum Dd2^Dd2 parasite line; assay: Piperaquine survival assay; type: cell-based, Plasmodium falciparum; conditions: vs no-drug control
[2] = test system: P. falciparum 7G8^7G8+F145I parasite line; assay: Piperaquine survival assay; type: cell-based, Plasmodium falciparum; conditions: vs no-drug control

In the case of `Clc1ccc2c(N3CCN(CCCN4CCN(c5ccnc6cc(Cl)ccc56)CC4)CC3)ccnc2c1` [PPQ, piperaquine], the “PSA 3.125 nM, percent survival” value ([1]; 3.125 nM PPQ 48 h) is reported as 95.9 ± 2.1%, the “PSA 6.25 nM, percent survival” value ([1]; 6.25 nM PPQ 48 h) is reported as 83.6 ± 6.1% and the “PSA 12.5 nM, percent survival” value ([1]; 12.5 nM PPQ 48 h) is reported as 67.7 ± 11.9%. The “PSA 25 nM, percent survival” value ([1]; 25 nM PPQ 48 h) was 35.3 ± 12.2%, the “PSA 50 nM, percent survival” value ([1]; 50 nM PPQ 48 h) was 7.6 ± 3.3% and the “PSA 100 nM, percent survival” value ([1]; 100 nM PPQ 48 h) was 1.7 ± 0.2%. The “PSA 200 nM, percent survival” value ([1]; 200 nM PPQ 48 h) was 1.1 ± 0.10%, the “PSA 400 nM, percent survival” value ([1]; 400 nM PPQ 48 h) was 1.1 ± 0.24% and the “PSA 800 nM, percent survival” value ([1]; 800 nM PPQ 48 h) was 0.89 ± 0.16%. The “PSA 1600 nM, percent survival” value ([1]; 1600 nM PPQ 48 h) was 0.87 ± 0.10%, the “PSA 3.125 nM, percent survival” value ([2]; 3.125 nM PPQ 48 h) was 95.7 ± 3.1% and the “PSA 6.25 nM, percent survival” value ([2]; 6.25 nM PPQ 48 h) was 83.4 ± 4.5%. For the same molecule, the “PSA 12.5 nM, percent survival” value ([2]; 12.5 nM PPQ 48 h) was 62.3 ± 4.1%, the “PSA 25 nM, percent survival” value ([2]; 25 nM PPQ 48 h) was 44.5 ± 2.4% and the “PSA 50 nM, percent survival” value ([2]; 50 nM PPQ 48 h) was 8.5 ± 1.2%. For the same molecule, the “PSA 200 nM, percent survival” value ([2]; 200 nM PPQ 48 h) was 8.6 ± 2.4%, the “PSA 400 nM, percent survival” value ([2]; 400 nM PPQ 48 h) was 12.7 ± 2.5% and the “PSA 800 nM, percent survival” value ([2]; 800 nM PPQ 48 h) was 13.1 ± 3.9%. For the same molecule, the “PSA 1600 nM, percent survival” value ([2]; 1600 nM PPQ 48 h) was 14.7 ± 4.2%.
